In publication PMC2654097, “Orally Available Selective Melanocortin-4 Receptor Antagonists Stimulate Food Intake and Reduce Cancer-Induced Cachexia in Mice” (PLoS ONE, 2009):
Read-outs that look alike come from different tables or passages of the source. Ends that are not written are not given here.

How the values were obtained:
[1] = system: models of cancer-induced anorexia; design: method as in PMID 17584133, PMID 15800806; conditions: central administration; cited from earlier work
healthy mice = test: Light phase food intake; type: in vivo, NMRI mice; conditions: for effect on food intake, single dose comparison / effect on food intake: 4 hrs; for effect on food intake, single dose comparison: p<0.01 vs vehicle; for amount of food taken relative to vehicle control group: p.o., four hour post-treatment observation period; for effect on food intake: single oral treatment by gavage, dose range; for effect on food intake / amount of food taken relative to vehicle treated controls: light phase; for amount of food taken relative to vehicle treated controls: single s.c. injection 20 mg/kg, 4 hrs observation, p<0.01
Procedure: Six weeks old female NMRI mice (RCC Ltd.; Füllinsdorf, CH) were randomly assigned to the various experimental groups and the vehicle controls. They were housed in groups of 3 mice per cage. After at least one week of acclimatization in the experimental room, each animal's weight was determined and compound or vehicle was administered at appropriate concentrations 5 hrs after lights on. Then, food consumption of each cage group was recorded by weighing of the food hopper over a period of 4 hrs. Food intake was then determined as the difference in food hopper weight at the beginning and end of the 4 hrs following administration of the compound or the vehicle. Since the amount of food taken over 4 hrs by single animals was close to the limit of detection, we decided to rely on mean food amounts taken per cage (i.e., per 3 mice), whereby each treatment group consisted of n = 6 cages. The measured values from each cage were normalized to 100 g body weight (BW). Previous experiments indicated an excellent correlation between food intake and reduction of food weight.

C26 tumor bearing mice = test: C26 adenocarcinoma-induced cachexia model; type: in vivo, BALB/c mice; conditions: for tumor induced weight loss: 30 mg/kg p.o. once daily starting the day after tumor implantation; for body composition (lean body mass and fat mass) / tumor weight / mice that did not show cachexia (loss of more than 5% of body weight): 30 mg/kg p.o. once daily; for body composition (lean body mass and fat mass): day 0 vs day 15, MRI relaxometry; for tumor weight: end of experiment, mean±SEM, not different from Vehicle+Tumor controls; for mice that did not show cachexia (loss of more than 5% of body weight): n = 9, Vehicle+Tumor controls 2 of 9 and 3 of 9
Procedure: Six week old male BALB/c mice (Harlan, The Netherlands) were used. The animals were single housed, and after a one week adaption period randomly assigned to the experimental or control groups. For the tumor implantation the mice were anaesthetized with 200 µl of ketamine/xylazine. Approximately 1×10^6 C26 cells suspended in phosphate buffered saline were then implanted unilaterally in the flank of the mice by subcutaneous injection. The non-tumor controls underwent the same procedure but received PBS injection only (n = 9 per group). Starting on the first day after tumor implantation, compounds or vehicle were administered orally in 5 ml/kg 1–2 hrs before the onset of the dark phase. Food intake and body weight were recorded daily. Lean and fat mass of each animal were determined by MRI relaxometry (EchoMRI-500, Echo Medical Systems, Houston, TX, USA) prior to tumor inoculation (day 0) and at the end of the experiment after removal of the tumor (typically day 15).

[2] = Brain and plasma concentrations in vivo; conditions: 60 mg/kg p.o., CD-1 mice; for Brain AUC / Plasma AUC: 0-6 hr; for Brain/plasma ratio: calculated from AUC
Procedure: Twelve weeks old male CD-1 (Hilltop Lab Animals, PA, USA) mice were dosed by gavage with either SNT207707 or SNT207858 at 60 mg/kg (n = 9 per compound). At 1, 3, and 6 hrs post-dose, 3 mice from each compound group were euthanized with CO2. Blood was collected by cardiac puncture, plasma was isolated immediately and then kept on dry ice until analysis. Brains were removed, rinsed with saline solution and stored at −80°C until analysis. Levels of the compound were determined by HPLC followed by mass spectrometry (MS/MS). Areas under the curve (AUC) of plasma and brain levels were computed from measured levels at 1, 3 and 6 hrs post-dose. Brain/plasma ratios were then calculated based on the AUCs. To assess the integrity of the blood-brain-barrier all animals were co-dosed with 10 mg/kg Atenolol.

MC-4 receptor [3] = biological target: MC-4 receptor; design: method as in earlier work; conditions: binding; read-out: IC50 (binding) / affinity on the MC-4 receptor; cited from earlier work
MC-4 receptor [4] = biological target: MC-4 receptor; design: method as in earlier work; conditions: function; cited from earlier work
MC-3 = system: MC-3; design: method as in earlier work; conditions: MC-4 vs. MC-3; cited from earlier work
MC-5 = system: MC-5; design: method as in earlier work; conditions: MC-4 vs. MC-5; cited from earlier work
[5] = system: animals implanted with a colorectal tumor; design: method as in PMID 15027849; conditions: subcutaneous administration; cited from earlier work
[6] = system: animals implanted with Lewis lung carcinoma; conditions: subcutaneous administration; cited from earlier work

For SHU-9119 [reference compound], which food intake [1] is on record?
Its food intake is “increased food intake”.

With `CC[C@H](COc1cccnc1C1CCN(C(=O)[C@@H](Cc2ccc(Cl)cc2Cl)NC(=O)N2CCCC2)CC1)N1CCCC1` [SNT207858] as the molecule, how does the “effect on food intake, single dose comparison” value (“effect … single dose comparison” below) (healthy mice; p.o. 60 mg/kg) read?
Its value is “statistically significant increases in food intake”.

What about the “effect … single dose comparison” value (healthy mice; p.o. 120 mg/kg) of the same molecule?
The value was “statistically significant increases in food intake”.

And the “amount of food taken relative to vehicle control group” value (healthy mice)?
Its value is “roughly up to four times”.

And the “effect on food intake” value (healthy mice)?
The value was “dose-dependently increased the food intake”.

What about the “amount of food taken relative to vehicle treated controls” value (healthy mice) of the same molecule?
Its value is “roughly 3 fold”.

What about the “tumor induced weight loss” value (C26 tumor bearing mice) of the same molecule?
Its value is “significantly reduced the tumor induced weight loss”.

What about the “body composition (lean body mass and fat mass)” value (C26 tumor bearing mice) of the same molecule?
The value was “loss of lean body mass and loss of fat mass was reduced”.

And the tumor weight (C26 tumor bearing mice)?
Its tumor weight is 1.11 ± 0.09 g.

And the “mice that did not show cachexia (loss of more than 5% of body weight)” value (C26 tumor bearing mice)?
Its value is 6 out of 9.

And the “Brain AUC” value [2]?
Its value is 0.437 µM·h.

What about the “Plasma AUC” value [2] of the same molecule?
Its value is 4.405 µM·h.

What about the Brain/plasma ratio [2] of the same molecule?
Its Brain/plasma ratio is 0.10.

And the Plasma peak ([2]; levels at 1, 3, 6 hrs)?
Its Plasma peak is 1520 nM.

And the IC50 (MC-4 receptor [3])?
The IC50 was 22 nM.

What about the IC50 (MC-4 receptor [4]) of the same molecule?
Its IC50 is 11 nM.

And the “selectivity vs. MC-3” value (MC-3)?
Its value is 170 fold.

What about the “selectivity vs. MC-5” value (MC-5) of the same molecule?
The value was 40 fold.

With “AgRP: agouti-related protein, the endogenous inverse agonist at the MC-4 receptor (SSRRCVRLHESCLGQQVPCCDPCATCYCRFFNAFCYCRKLGTAMNPCSRT; ends and bridges not checked; cysteine pairing not given here; UniProt O00253 83-132, looked up)” as the molecule, how does the food intake [1] read?
The food intake was “increased food intake”.

Which cachexia [5] does the source give for `COc1ccc(Br)cc1CCc1c(F)cccc1C1=NCCN1` [ML00253764, 2-[2-[2-(5-bromo-2-methoxyphenyl)-ethyl]-3-fluorophenyl]-4,5-dihydro-1H-imidazole] here?
The cachexia was “efficacious in reducing cachexia”.

What about the cachexia [6] of the same molecule?
Its cachexia is “efficacious in reducing cachexia”.

Which “effect … single dose comparison” value (healthy mice; p.o. 120 mg/kg) does the source give for `CC(C)CCN(CCC(C)C)C(=O)c1ccc2nc(-c3ccc(C#N)cc3)c(CCCN3CCCC3)n2c1.Cl` [SNT207707] here?
Its value is “statistically significant increases in food intake”.

And the “amount of food taken relative to vehicle control group” value (healthy mice)?
Its value is “roughly up to four times”.

What about the “effect on food intake” value (healthy mice) of the same molecule?
Its value is “dose-dependently increased the food intake”.

What about the “amount of food taken relative to vehicle treated controls” value (healthy mice) of the same molecule?
The value was “roughly 3 fold”.

What about the “tumor induced weight loss” value (C26 tumor bearing mice) of the same molecule?
The value was “significantly reduced the tumor induced weight loss”.

And the “body composition (lean body mass and fat mass)” value (C26 tumor bearing mice)?
The value was “loss of lean body mass and loss of fat mass was reduced”.

And the tumor weight (C26 tumor bearing mice)?
Its tumor weight is 1.03 ± 0.07 g.

And the “mice that did not show cachexia (loss of more than 5% of body weight)” value (C26 tumor bearing mice)?
Its value is 8 out of 9.

And the “Brain AUC” value [2]?
The value was 2.307 µM·h.

What about the “Plasma AUC” value [2] of the same molecule?
Its value is 6.373 µM·h.

What about the Brain/plasma ratio [2] of the same molecule?
The Brain/plasma ratio was 0.36.

And the Brain peak ([2]; levels at 1, 3, 6 hrs)?
Its Brain peak is about 580 nM.

And the Plasma peak ([2]; levels at 1, 3, 6 hrs)?
Its Plasma peak is 1960 nM.

What about the IC50 (MC-4 receptor [3]) of the same molecule?
The IC50 was 8 nM.

And the IC50 (MC-4 receptor [4])?
Its IC50 is 5 nM.

And the “selectivity vs. MC-3” value (MC-3)?
Its value is “more than 200 fold”.

What about the “selectivity vs. MC-5” value (MC-5) of the same molecule?
The value was “more than 200 fold”.
